Consider 1 molecule from ChEMBL document CHEMBL5212743, “Selectivity Literature for EUbOPEN Chemogenomics Library wave 3” (2023).

The structures appear in SMILES notation.

In data set [1] the target is T1, Adenosine receptor A3 (Homo sapiens) (UniProt P0DMS8).
T1 sequence (whole entry): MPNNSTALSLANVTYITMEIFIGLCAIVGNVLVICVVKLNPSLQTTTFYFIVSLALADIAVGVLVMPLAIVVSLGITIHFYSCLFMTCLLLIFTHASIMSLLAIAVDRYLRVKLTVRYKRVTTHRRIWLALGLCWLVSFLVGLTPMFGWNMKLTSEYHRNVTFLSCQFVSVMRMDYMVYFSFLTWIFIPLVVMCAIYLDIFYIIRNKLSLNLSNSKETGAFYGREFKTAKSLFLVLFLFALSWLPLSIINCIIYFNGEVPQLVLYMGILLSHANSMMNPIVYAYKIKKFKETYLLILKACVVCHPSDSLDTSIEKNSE
Put plainly: Selectivity interaction (CEREP panel (Eurofins, binding assay)) EUB0000262b ADORA3. As to conditions: at 10 µM.

Data set [2] deals with T1, Adenosine receptor A3 (Homo sapiens). The experiment in a line: Selectivity interaction (Enzyme panel (Eurofins-Cerep)) EUB0000262b ADORA3. As to conditions: at 10 µM.
The target of data set [3] is Peroxisome proliferator-activated receptor gamma (Homo sapiens) (UniProt P37231). The experiment in a line: Selectivity interaction (CEREP panel (Eurofins, binding assay)) EUB0000262b PPARG. The settings on record: at 10 µM.
Data set [4] has the same target. The experiment in a line: Selectivity interaction (Enzyme panel (Eurofins-Cerep)) EUB0000262b PPARG. As to conditions: at 10 µM.
In data set [5] the target is Cholecystokinin receptor type A (Homo sapiens) (UniProt P32238). The experiment in a line: Selectivity interaction (CEREP panel (Eurofins, binding assay)) EUB0000262b CCKAR. As to conditions: at 10 µM.
Data set [6] shares this target. Put plainly: Selectivity interaction (Enzyme panel (Eurofins-Cerep)) EUB0000262b CCKAR. The settings on record: at 10 µM.
For data set [7], the target named is T2, Histamine H1 receptor (Homo sapiens, UniProt P35367). Put plainly: Selectivity interaction (CEREP panel (Eurofins, binding assay)) EUB0000262b HRH1. The settings on record: at 10 µM.
Data set [8] concerns the target T2, Histamine H1 receptor. The experiment in a line: Selectivity interaction (Enzyme panel (Eurofins-Cerep)) EUB0000262b HRH1. The settings on record: at 10 µM.
Data set [9] deals with Delta-type opioid receptor (Homo sapiens) (UniProt P41143). Put plainly: Selectivity interaction (CEREP panel (Eurofins, binding assay)) EUB0000262b OPRD1. The settings on record: at 10 µM.
Data set [10] has the same target. Put plainly: Selectivity interaction (Enzyme panel (Eurofins-Cerep)) EUB0000262b OPRD1. As to conditions: at 10 µM.
The target of data set [11] is MAP/microtubule affinity-regulating kinase 3 (Homo sapiens) (UniProt P27448). Put plainly: Selectivity interaction (KinomeScan (DiscoverX)) EUB0000262b MARK3. The settings on record: at 1 µM.
In data set [12] the target is T3, Prostaglandin G/H synthase 2 (Homo sapiens) (UniProt P35354).
T3 sequence (whole entry): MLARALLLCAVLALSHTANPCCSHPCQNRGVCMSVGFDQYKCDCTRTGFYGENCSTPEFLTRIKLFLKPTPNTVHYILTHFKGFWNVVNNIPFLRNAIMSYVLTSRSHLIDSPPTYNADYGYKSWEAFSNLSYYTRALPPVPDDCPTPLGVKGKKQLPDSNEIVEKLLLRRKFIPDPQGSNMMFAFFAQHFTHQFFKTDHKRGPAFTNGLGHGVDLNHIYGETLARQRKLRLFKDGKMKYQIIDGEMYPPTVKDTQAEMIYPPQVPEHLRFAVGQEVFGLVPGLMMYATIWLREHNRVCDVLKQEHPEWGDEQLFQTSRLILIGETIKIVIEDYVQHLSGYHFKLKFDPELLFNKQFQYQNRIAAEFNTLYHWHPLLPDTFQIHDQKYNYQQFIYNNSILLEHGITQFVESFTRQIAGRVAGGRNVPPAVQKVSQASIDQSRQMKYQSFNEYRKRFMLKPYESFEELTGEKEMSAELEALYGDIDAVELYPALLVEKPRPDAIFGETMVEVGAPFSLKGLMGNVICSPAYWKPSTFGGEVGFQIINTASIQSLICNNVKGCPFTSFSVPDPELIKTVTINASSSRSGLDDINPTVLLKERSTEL
The experiment in a line: Selectivity interaction (CEREP panel (Eurofins, binding assay)) EUB0000262b PTGS2. As to conditions: at 10 µM.

Data set [13] concerns the target T3, Prostaglandin G/H synthase 2 (Homo sapiens). Put plainly: Selectivity interaction (Enzyme panel (Eurofins-Cerep)) EUB0000262b PTGS2. The settings on record: at 10 µM.
The target in data set [14] is T4, Aurora kinase C (Homo sapiens) (UniProt Q9UQB9).
T4 sequence (whole entry): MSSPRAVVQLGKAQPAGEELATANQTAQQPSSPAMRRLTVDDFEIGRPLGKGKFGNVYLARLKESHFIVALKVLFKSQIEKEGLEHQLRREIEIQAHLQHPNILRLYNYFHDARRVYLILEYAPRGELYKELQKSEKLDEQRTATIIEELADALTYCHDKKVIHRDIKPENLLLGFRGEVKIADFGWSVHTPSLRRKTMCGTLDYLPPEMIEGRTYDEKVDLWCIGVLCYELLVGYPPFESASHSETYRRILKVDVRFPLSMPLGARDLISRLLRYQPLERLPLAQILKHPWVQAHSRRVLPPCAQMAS
Put plainly: Selectivity interaction (KinomeScan (DiscoverX)) EUB0000262b AURKC. The settings on record: at 1 µM.

Data set [15] deals with Urotensin-2 receptor (Homo sapiens) (UniProt Q9UKP6). The experiment in a line: Selectivity interaction (CEREP panel (Eurofins, binding assay)) EUB0000262b UTS2R. As to conditions: at 10 µM.
For data set [16] the target is unchanged. Put plainly: Selectivity interaction (Enzyme panel (Eurofins-Cerep)) EUB0000262b UTS2R. The settings on record: at 10 µM.
Data set [17] has as its target T5, Gamma-aminobutyric acid receptor subunit alpha-1 (Homo sapiens, UniProt P14867).
T5 sequence (P14867 whole entry): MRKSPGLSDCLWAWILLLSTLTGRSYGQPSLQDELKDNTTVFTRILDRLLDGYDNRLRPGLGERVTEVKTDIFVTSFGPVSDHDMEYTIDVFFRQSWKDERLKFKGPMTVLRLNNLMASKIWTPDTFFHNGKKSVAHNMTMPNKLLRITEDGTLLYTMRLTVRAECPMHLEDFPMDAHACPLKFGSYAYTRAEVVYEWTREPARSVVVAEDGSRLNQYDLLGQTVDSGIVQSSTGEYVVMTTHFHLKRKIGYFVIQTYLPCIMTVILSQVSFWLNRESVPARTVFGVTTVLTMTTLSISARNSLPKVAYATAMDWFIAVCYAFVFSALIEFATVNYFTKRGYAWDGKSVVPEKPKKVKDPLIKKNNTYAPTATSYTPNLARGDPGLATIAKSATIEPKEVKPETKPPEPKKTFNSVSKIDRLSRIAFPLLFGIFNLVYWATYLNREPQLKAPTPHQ
The experiment in a line: Selectivity interaction (GPCR panel (PDSP screen)) EUB0000262b GABRA1.

Data set [18] has as its target T6, Amine oxidase [flavin-containing] A (Homo sapiens, UniProt P21397). Put plainly: Selectivity interaction (CEREP panel (Eurofins, binding assay)) EUB0000262b MAOA. The settings on record: at 10 µM.
For data set [19], the target named is T6, Amine oxidase [flavin-containing] A. The experiment in a line: Selectivity interaction (Enzyme panel (Eurofins-Cerep)) EUB0000262b MAOA. The settings on record: at 10 µM.

T2 sequence (P35367 whole entry): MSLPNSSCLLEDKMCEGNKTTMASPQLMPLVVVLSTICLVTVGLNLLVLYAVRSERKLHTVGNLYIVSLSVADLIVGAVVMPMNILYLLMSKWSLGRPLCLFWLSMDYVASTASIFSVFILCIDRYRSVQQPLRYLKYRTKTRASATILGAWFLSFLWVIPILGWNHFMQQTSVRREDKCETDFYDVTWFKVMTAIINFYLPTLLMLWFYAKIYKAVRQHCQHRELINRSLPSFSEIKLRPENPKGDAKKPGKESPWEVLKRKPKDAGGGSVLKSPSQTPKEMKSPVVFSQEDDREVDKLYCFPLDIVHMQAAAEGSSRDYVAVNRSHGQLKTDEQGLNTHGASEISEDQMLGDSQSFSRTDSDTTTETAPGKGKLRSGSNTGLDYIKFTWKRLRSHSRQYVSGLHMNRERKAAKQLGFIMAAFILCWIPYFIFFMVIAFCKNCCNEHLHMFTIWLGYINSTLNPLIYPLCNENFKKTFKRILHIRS
Sequence of Delta-type opioid receptor (Homo sapiens) (P41143 whole entry): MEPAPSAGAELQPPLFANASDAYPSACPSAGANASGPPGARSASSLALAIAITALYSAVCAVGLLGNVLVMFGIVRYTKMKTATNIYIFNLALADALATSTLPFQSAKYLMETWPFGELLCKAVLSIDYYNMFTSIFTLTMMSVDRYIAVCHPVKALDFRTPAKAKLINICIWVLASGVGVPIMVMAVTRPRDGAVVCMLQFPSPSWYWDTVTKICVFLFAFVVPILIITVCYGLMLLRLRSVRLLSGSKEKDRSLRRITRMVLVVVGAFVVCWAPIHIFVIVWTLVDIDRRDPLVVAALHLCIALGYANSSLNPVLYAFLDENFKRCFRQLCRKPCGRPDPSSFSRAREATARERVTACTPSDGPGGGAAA
Sequence of Peroxisome proliferator-activated receptor gamma (Homo sapiens) (P37231 whole entry): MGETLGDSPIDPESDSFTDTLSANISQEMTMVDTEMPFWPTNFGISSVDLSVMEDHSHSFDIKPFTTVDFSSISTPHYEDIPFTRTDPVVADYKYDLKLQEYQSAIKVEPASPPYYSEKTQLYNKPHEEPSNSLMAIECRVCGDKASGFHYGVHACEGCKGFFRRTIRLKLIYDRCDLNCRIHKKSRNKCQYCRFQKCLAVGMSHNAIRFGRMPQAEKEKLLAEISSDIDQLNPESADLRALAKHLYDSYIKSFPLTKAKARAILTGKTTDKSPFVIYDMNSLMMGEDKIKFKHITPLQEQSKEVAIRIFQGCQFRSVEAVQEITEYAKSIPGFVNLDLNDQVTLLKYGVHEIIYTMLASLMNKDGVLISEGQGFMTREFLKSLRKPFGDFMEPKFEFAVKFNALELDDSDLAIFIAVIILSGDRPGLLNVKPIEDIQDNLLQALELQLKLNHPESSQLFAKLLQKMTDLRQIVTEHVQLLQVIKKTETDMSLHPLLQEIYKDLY
T6 sequence (P21397 whole entry): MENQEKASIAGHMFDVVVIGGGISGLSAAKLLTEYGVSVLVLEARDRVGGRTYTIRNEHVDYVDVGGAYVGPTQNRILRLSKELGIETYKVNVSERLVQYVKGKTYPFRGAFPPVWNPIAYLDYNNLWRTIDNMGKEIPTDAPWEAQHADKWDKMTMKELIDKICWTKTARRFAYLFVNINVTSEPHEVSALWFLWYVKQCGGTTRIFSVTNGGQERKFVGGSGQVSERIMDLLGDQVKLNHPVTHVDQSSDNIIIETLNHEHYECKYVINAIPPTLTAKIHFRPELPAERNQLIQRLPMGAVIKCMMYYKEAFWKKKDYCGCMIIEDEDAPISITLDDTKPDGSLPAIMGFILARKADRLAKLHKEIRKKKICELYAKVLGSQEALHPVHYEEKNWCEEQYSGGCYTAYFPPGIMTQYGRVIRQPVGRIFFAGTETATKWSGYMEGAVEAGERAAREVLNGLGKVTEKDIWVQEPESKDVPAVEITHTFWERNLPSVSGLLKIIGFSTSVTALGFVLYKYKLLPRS
Sequence of Urotensin-2 receptor (Homo sapiens) (Q9UKP6 whole entry): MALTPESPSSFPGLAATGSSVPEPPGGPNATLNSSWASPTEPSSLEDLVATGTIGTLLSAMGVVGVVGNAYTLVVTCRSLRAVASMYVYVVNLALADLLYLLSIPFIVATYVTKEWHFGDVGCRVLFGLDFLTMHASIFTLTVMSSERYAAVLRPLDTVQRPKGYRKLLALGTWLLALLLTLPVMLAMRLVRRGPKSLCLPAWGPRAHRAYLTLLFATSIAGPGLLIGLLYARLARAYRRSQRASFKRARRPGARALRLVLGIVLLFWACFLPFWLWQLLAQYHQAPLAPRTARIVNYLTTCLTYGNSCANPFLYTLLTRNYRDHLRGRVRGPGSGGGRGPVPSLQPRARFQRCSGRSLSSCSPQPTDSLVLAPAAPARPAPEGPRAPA
Sequence of Cholecystokinin receptor type A (Homo sapiens) (P32238 whole entry): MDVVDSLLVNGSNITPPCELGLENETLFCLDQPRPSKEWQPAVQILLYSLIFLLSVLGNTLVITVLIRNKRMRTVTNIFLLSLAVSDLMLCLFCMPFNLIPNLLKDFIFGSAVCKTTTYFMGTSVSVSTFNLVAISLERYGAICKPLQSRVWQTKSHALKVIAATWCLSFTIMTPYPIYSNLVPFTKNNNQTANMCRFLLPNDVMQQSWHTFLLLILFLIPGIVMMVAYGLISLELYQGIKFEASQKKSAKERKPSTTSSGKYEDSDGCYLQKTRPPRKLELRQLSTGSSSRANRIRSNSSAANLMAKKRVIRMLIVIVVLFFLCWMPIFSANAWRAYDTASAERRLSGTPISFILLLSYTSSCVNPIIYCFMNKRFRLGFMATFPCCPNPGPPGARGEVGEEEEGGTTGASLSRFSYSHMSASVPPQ
Sequence of MAP/microtubule affinity-regulating kinase 3 (Homo sapiens) (P27448 whole entry, looked up): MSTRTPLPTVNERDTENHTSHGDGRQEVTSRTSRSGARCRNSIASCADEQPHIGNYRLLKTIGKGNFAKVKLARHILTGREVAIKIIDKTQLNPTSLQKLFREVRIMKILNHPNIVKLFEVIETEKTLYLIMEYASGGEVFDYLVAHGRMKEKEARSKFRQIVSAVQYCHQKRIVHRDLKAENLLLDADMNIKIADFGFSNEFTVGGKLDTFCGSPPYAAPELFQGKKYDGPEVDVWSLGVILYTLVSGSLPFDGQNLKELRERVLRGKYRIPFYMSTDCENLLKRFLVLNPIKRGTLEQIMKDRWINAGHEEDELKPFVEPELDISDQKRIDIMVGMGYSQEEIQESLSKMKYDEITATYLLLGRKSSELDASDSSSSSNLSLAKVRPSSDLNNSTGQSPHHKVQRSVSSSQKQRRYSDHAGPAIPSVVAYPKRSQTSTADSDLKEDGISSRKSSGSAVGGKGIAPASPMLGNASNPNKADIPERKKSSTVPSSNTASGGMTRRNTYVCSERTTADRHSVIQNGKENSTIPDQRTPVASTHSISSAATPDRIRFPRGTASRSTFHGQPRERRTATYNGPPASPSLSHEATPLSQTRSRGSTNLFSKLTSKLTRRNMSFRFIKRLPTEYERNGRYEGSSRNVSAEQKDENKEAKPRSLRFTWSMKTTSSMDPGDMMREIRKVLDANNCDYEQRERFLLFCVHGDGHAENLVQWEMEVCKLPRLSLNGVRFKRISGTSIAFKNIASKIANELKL

Turning to `CN(C)CC#Cc1ccc(OCCCc2sc(N3CCc4cccc(C(=O)Nc5nc6ccccc6s5)c4C3)nc2C(=O)O)c(F)c1` [A-1155463], the % of inhibition in [1] was 71.6%; in data set [2], 71.6%; in data set [3], 99.1%; in data set [4] it was 99.1%; in data set [5] it was 98.9%; in [6] it was 98.9%. Further, the % of inhibition amounted to 69.2% at Histamine H1 receptor [7]; 69.2% on Histamine H1 receptor [8]; 77.9% in data set [9]; 77.9% in data set [10]; 62.2% in data set [12]; 62.2% in [13]. Besides, the % of inhibition is 94.9% in data set [15], 94.9% in data set [16], 74.5% in data set [18] and 74.5% in data set [19]. Besides, the % of control in [11] was 38%; in data set [14], 9%. In addition, in data set [17], the inhibition constant Ki stood at 794 nM.

By Ki is commonly meant a dissociation constant, usually derived from enzyme kinetics or from competition with a known ligand. A lower Ki goes with tighter binding.
